Reference: paper PMC11206203, “Peptide macrocyclisation via intramolecular interception of visible-light-mediated desulfurisation” (Chemical Science, 2024)
Where a SMILES comes first, the peptide text is derived from it. [ ]: non-standard residue; d: D form. Nle = CCCC[C@H](N)C(=O)O

Columns and labels:
[1] = target: T1, MCL-1 (Homo sapiens, UniProt Q07820); assay: Competitive inhibition, fluorescence anisotropy, MCL-1 and fluorophore-labelled WT BH3 sequence; type: binding; conditions: competition FA; MCL-1 (residues 172-327), tracer FAM-Ahx-BID / fluorophore-labelled WT BH3 sequence; 20 mM Tris, 150 mM NaCl, pH 7.6; 384-well plates, tested in triplicate; excitation 480 nm, emission 535 nm; fit to sigmoidal logistic model; Fig. S160; read-out: inhibitory potency (competitive inhibition, fluorescence anisotropy)
T1 construct: MCL-1 (residues 172-327) was expressed and purified as described previously; made in house
Source text: Finally, to explore internal peptide ‘stapling’ using this strategy, we selected a region of a BH3 protein – BID80–102, that binds MCL-1 to regulate apoptosis.[53,72] This PPI is known to play a significant role in cancer development and progression.[53,72] Three sequences (54–56) were synthesised with alGly and Cys positioned to afford either an internal i, i + 4 staple (57, 59; Fig. 5 and ESI ^†) or i, i + 7 staple (58; Fig. 5 and ESI ^†), fixing the length of either one or two full helical turns of the peptide, respectively. In addition, peptide macrocycle 26 is a head-to-tail macrocycle representing the i, i + 4 binding region of these longer sequences. The staple for all three peptides was successfully formed under the standard conditions, albeit in lower yield than the N- to C-terminal cyclisations previously explored (57–59). The alpha-helical structure of peptide 59 was assessed via CD spectroscopy. […]
All samples were prepared in 20mM Tris, 150 mM NaCl, pH 7.6 solutions. All assays were performed using 384 -well plates (Greiner Bio -one, UK) and tested in triplicate using an EnVisionTM 2103 MultiLabel plate reader (Perkin Elmer; Waltham, MA, USA). […] Measured data were processed and analysed as previously described. […]

[2] = C(sp3)-C(sp3) bond formation by visible-light-mediated Cys desulfurisation: alanyl radical adds to terminal alkene of allylglycine (or O-allyl Ser, pentenylGly, acrylamide); TCEP 50 eq (25 mM), (Ir[dF(CF3)ppy]2(dtbpy))PF6 1 mol%, 450 nm blue LED; unprotected peptides; conditions: from C=CC[C@H](NC(=O)[C@H](C)NC(=O)[C@H](CC(C)C)NC(=O)[C@H](Cc1c[nH]cn1)NC(=O)[C@H](CCCNC(=N)N)NC(=O)[C@H](C)NC(=O)[C@@H](NC(=O)[C@H](CC(N)=O)NC(=O)[C@H](CCCNC(=N)N)NC(=O)[C@@H](NC(=O)[C@@H](NC(=O)[C@H](CC(=O)O)NC(=O)[C@H](CCC(=O)O)NC(C)=O)[C@@H](C)CC)[C@@H](C)CC)[C@@H](C)CC)C(=O)N[C@H](C(=O)NCC(=O)N[C@@H](CC(=O)O)C(=O)N[C@@H](CS)C(=O)N[C@@H](CCCC)C(=O)N[C@@H](CC(=O)O)C(=O)N[C@@H](CCCNC(=N)N)C(=O)N[C@@H](CO)C(=O)N[C@H](C(=O)N[C@@H](Cc1c[nH]c2ccccc12)C(N)=O)[C@@H](C)CC)C(C)C; 17-membered ring; 6 M Gdn.HCl, 0.1 M Na2HPO4 pH 7.5-8.0 / MeCN 9:1; 0.5 mM; 25.0 °C
[3] = CD spectroscopy, alpha-helical structure; type: physicochemical; conditions: alpha-helical content by CD; Fig. S159

T1 sequence (Q07820 172-327): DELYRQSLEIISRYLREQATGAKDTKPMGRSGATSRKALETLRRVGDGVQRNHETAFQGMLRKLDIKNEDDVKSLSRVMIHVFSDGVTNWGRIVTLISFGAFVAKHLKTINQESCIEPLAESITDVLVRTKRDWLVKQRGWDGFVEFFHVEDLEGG

Compound | IC50 [1] | ring closure, isolated yield [2] | helicity (CD spectroscopy) [3]
CCCC[C@H](NC(=O)[C@H](CO)NC(=O)[C@H](CC(=O)O)NC(=O)CNC(=O)[C@@H](NC(=O)[C@H](CCC(N)=O)NC(=O)[C@H](C)NC(=O)[C@H](CC(C)C)NC(=O)[C@H](Cc1c[nH]cn1)NC(=O)[C@H](CCCNC(=N)N)NC(=O)[C@H](C)NC(=O)[C@@H](NC(=O)[C@H](CC(N)=O)NC(=O)[C@H](CCCNC(=N)N)NC(=O)[C@@H](NC(=O)[C@@H](NC(=O)[C@H](CC(=O)O)NC(=O)[C@H](CCC(=O)O)NC(C)=O)[C@@H](C)CC)[C@@H](C)CC)[C@@H](C)CC)C(C)C)C(=O)N[C@@H](CC(=O)O)C(=O)N[C@@H](CCCNC(=N)N)C(=O)N[C@@H](CO)C(=O)N[C@H](C(=O)N[C@@H](Cc1c[nH]c2ccccc12)C(N)=O)[C@@H](C)CC [BID-wt, reference compound] (Ac-EDIIRNIARHLAQVGDS[Nle]DRSIW-NH2) | 7.4 ± 0.9 µM |  | 
CCCC[C@H](NC(=O)[C@@H]1CCCC[C@H](NC(=O)[C@H](C)NC(=O)[C@H](CC(C)C)NC(=O)[C@H](Cc2c[nH]cn2)NC(=O)[C@H](CCCNC(=N)N)NC(=O)[C@H](C)NC(=O)[C@@H](NC(=O)[C@H](CC(N)=O)NC(=O)[C@H](CCCNC(=N)N)NC(=O)[C@@H](NC(=O)[C@@H](NC(=O)[C@H](CC(=O)O)NC(=O)[C@H](CCC(=O)O)NC(C)=O)[C@@H](C)CC)[C@@H](C)CC)[C@@H](C)CC)C(=O)N[C@@H](C(C)C)C(=O)NCC(=O)N[C@@H](CC(=O)O)C(=O)N1)C(=O)N[C@@H](CC(=O)O)C(=O)N[C@@H](CCCNC(=N)N)C(=O)N[C@@H](CO)C(=O)N[C@H](C(=O)N[C@@H](Cc1c[nH]c2ccccc12)C(N)=O)[C@@H](C)CC [compound 59] | 26 ± 4 µM | 49% | 
Ac-EDIIRNIARHLA(alG)VGDCNLDRSIW-NH2 [compound 56, starting peptide carrying the allyl glycine residue] |  |  | 38%
